Reference: the supplement of paper PMC4862054

Legend:
Details in all cases: incubation time: 72 h
BT-474 [1] = assay: normalised response (% of control), CellTox Green; higher = less cell death (100 = DMSO, 0 = benzethonium chloride kill control)
Summary of the method: (§1)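 Breast cancer cell lines, seeded at 20 µl suspension per well, were incubated for 72 h in 384-well plates containing compound at 5 concentrations. These concentrations rose in 10-fold steps over a 10,000-fold range set for each compound. CellTox Green fluorescence (485/520 nm) was read, then CellTiter-Glo luminescence after 10 min at room temperature, and each plate was normalised to 0.1 % DMSO (100) and a positive kill control (0). Values are normalised signals, each at one concentration.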

BT-549 [2] = assay: as above
Summary of the method: as §1

CAL-120 [3] = assay: as above
Summary of the method: as §1

CAL-148 [4] = assay: as above
Summary of the method: as §1

CAL-51 [5] = assay: as above
Summary of the method: as §1

CAL-85-1 [6] = assay: as above
Summary of the method: as §1

DU-4475 [7] = assay: as above
Summary of the method: as §1

HCC1143 [8] = assay: as above
Summary of the method: as §1

HCC1599 [9] = assay: as above
Summary of the method: as §1

HCC1937 [10] = assay: as above
Summary of the method: as §1

HDQ-P1 [11] = assay: as above
Summary of the method: as §1

Hs578T [12] = assay: as above
Summary of the method: as §1

MCF-10A [13] = assay: as above
Summary of the method: as §1

MDA-MB-231 [14] = assay: as above
Summary of the method: as §1

MDA-MB-436 [15] = assay: as above
Summary of the method: as §1

MDA-MB-453 [16] = assay: as above
Summary of the method: as §1

MDA-MB-468 [17] = assay: as above
Summary of the method: as §1

MFM-223 [18] = assay: as above
Summary of the method: as §1

BT-474 [19] = assay: normalised response (% of control), CellTiter-Glo; higher = more viable cells (100 = DMSO, 0 = benzethonium chloride kill control)
Summary of the method: as §1

BT-549 [20] = assay: as above
Summary of the method: as §1

CAL-120 [21] = assay: as above
Summary of the method: as §1

CAL-148 [22] = assay: as above
Summary of the method: as §1

CAL-51 [23] = assay: as above
Summary of the method: as §1

CAL-85-1 [24] = assay: as above
Summary of the method: as §1

DU-4475 [25] = assay: as above
Summary of the method: as §1

HCC1143 [26] = assay: as above
Summary of the method: as §1

HCC1599 [27] = assay: as above
Summary of the method: as §1

HCC1937 [28] = assay: as above
Summary of the method: as §1

HDQ-P1 [29] = assay: as above
Summary of the method: as §1

Hs578T [30] = assay: as above
Summary of the method: as §1

MCF-10A [31] = assay: as above
Summary of the method: as §1

MDA-MB-231 [32] = assay: as above
Summary of the method: as §1

MDA-MB-436 [33] = assay: as above
Summary of the method: as §1

MDA-MB-453 [34] = assay: as above
Summary of the method: as §1

MDA-MB-468 [35] = assay: as above
Summary of the method: as §1

MFM-223 [36] = assay: as above
Summary of the method: as §1

SK-BR-3 = assay: as above
Summary of the method: as §1

Row | SMILES | normalised response (BT-474 [1]) [%] | normalised response (BT-549 [2]) [%] | normalised response (CAL-120 [3]) [%] | normalised response (CAL-148 [4]) [%] | normalised response (CAL-51 [5]) [%] | normalised response (CAL-85-1 [6]) [%] | normalised response (DU-4475 [7]) [%] | normalised response (HCC1143 [8]) [%] | normalised response (HCC1599 [9]) [%] | normalised response (HCC1937 [10]) [%] | normalised response (HDQ-P1 [11]) [%] | normalised response (Hs578T [12]) [%] | normalised response (MCF-10A [13]) [%] | normalised response (MDA-MB-231 [14]) [%] | normalised response (MDA-MB-436 [15]) [%] | normalised response (MDA-MB-453 [16]) [%] | normalised response (MDA-MB-468 [17]) [%] | normalised response (MFM-223 [18]) [%] | normalised response (BT-474 [19]) [%] | normalised response (BT-549 [20]) [%] | normalised response (CAL-120 [21]) [%] | normalised response (CAL-148 [22]) [%] | normalised response (CAL-51 [23]) [%] | normalised response (CAL-85-1 [24]) [%] | normalised response (DU-4475 [25]) [%] | normalised response (HCC1143 [26]) [%] | normalised response (HCC1599 [27]) [%] | normalised response (HCC1937 [28]) [%] | normalised response (HDQ-P1 [29]) [%] | normalised response (Hs578T [30]) [%] | normalised response (MCF-10A [31]) [%] | normalised response (MDA-MB-231 [32]) [%] | normalised response (MDA-MB-436 [33]) [%] | normalised response (MDA-MB-453 [34]) [%] | normalised response (MDA-MB-468 [35]) [%] | normalised response (MFM-223 [36]) [%] | normalised response (SK-BR-3) [%]
1 | C[C@@]1(C(=O)Nc2ccc(F)nc2)CCCN1c1nc(Nc2cc(C3CC3)n[nH]2)c2cccn2n1 (100 nM) | 95.3 | 90.2 | 100 | 96.3 | 104 | 85.8 | 94.4 | 87.5 | 98 | 103 | 89 | 89.5 | 76.1 | 78.5 | 99.2 | 95.8 | 71.9 | 104 | 79.5 | 86.5 | 82.9 | 102 | 106 | 74.9 | 82.2 | 91.9 | 82.8 | 90.7 | 64.2 | 92.7 | 28.7 | 79.8 | 86.9 | 80 | 87.8 | 84.5 | 83.2
2 | Cn1cnc2c(F)c(Nc3ccc(Br)cc3F)c(C(=O)NOCCO)cc21 [MEK-162] (10 nM) | 90.8 | 82.7 | 97.6 | 103 | 112 | 99.8 | 97.6 | 73 | 93 | 78.5 | 102 | 108 | 68.5 | 81.9 | 99.8 | 104 | 125 | 102 | 103 | 94.5 | 97.9 | 101 | 114 | 95.2 | 92.9 | 94.8 | 93.8 | 90.8 | 88.9 | 90.5 | 70.8 | 99.3 | 103 | 105 | 93 | 99.4 | 101
3 | COc1ncc(-c2ccc3nccc(-c4ccnnc4)c3c2)cc1NS(=O)(=O)c1ccc(F)cc1F (10 nM) | 93.4 | 106 | 102 | 91.5 | 104 | 81.9 | 101 | 107 | 112 | 96.1 | 89.5 | 95 | 110 | 106 | 106 | 102 | 68.8 | 96.3 | 78.3 | 72.7 | 75.7 | 96.1 | 77.2 | 69.5 | 93.1 | 85.2 | 83.4 | 78.7 | 60.7 | 77.5 | 63.7 | 82 | 84.6 | 63.3 | 80.2 | 82.7 | 53
4 | CC(=O)O[C@H]1C(=O)[C@@]2(C)[C@H]([C@H](OC(=O)c3ccccc3)[C@]3(O)C[C@H](OC(=O)[C@H](O)[C@@H](NC(=O)c4ccccc4)c4ccccc4)C(C)=C1C3(C)C)[C@]1(OC(C)=O)CO[C@@H]1C[C@@H]2O [Paclitaxel] (10 nM) | 74.6 | 72.5 | 89.9 | 39.4 | 19.9 | 20.9 | 97.6 | 88.4 | 91.5 | 86.7 | 87.9 | 34.1 | 78.9 | 41 | -40.2 | 92.9 | 41.3 | 59.4 | 60.3 | 34 | 70.1 | 42.7 | 52.7 | 31 | 89 | 42.3 | 80.5 | 68.2 | 69.1 | 43.3 | 52.6 | 62.9 | 43 | 80.2 | 28.7 | 61.6 | 16.9
5 | CS(=O)(=O)OCCCCOS(C)(=O)=O [Busulfan] (1000 nM) | 100 | 96.5 | 97.8 | 96.1 | 109 | 101 | 101 | 97.8 | 103 | 107 | 83.3 | 105 | 59.8 | 104 | 90.6 | 103 | 121 | 102 | 98.9 | 109 | 102 | 107 | 90.4 | 104 | 108 | 105 | 98.9 | 96.2 | 103 | 108 | 108 | 105 | 94.2 | 111 | 97.2 | 106 | 110
